According to US20250205235A1, “DOSE REGIMEN FOR VERICIGUAT” (ADVERIO PHARMA GMBH, priority 2023, published 2025):

Assays:
[1] = system: participants with chronic heart failure with reduced ejection fraction; test: Phase 2b open-label clinical study of tolerability and safety of a 5 mg initiation dose of vericiguat (NCT06195930)
Method: A Phase 2b open-label clinical study to evaluate the tolerability and safety of an initiation dose of 5 mg of Vericiguat in participants with chronic heart failure with reduced ejection fraction.
The patients had symptomatic chronic heart failure with reduced ejection fraction (HFrEF). […] Participants underwent a screening visit to assess eligibility. Eligible participants waited a mandatory 2 weeks before returning for Visit 1 in order to be clinically and hemodynamically stable. At Visit 1 (V1), participants received vericiguat with directions to take a 5 mg tablet once daily for 2 weeks. Participants returned for Visit 2 (V2) after 2 weeks of treatment. There were unplanned healthcare visits for heart failure between Visits 1 and 2 at the discretion of the investigator.
Primary objective was to evaluate the tolerability of 5 mg as a starting dose of vericiguat. Endpoint: Treatment tolerability, defined as the completion of the two-week 5 mg dose without discontinuation of study intervention and without moderate to severe symptomatic hypotension between Visit 1 (V1) and Visit 2 (V2) Secondary objective 1 was to describe safety events of initiation of 5 mg dose. Endpoints: Any adverse event reported between V1 and V2. Absence of adverse events related to study intervention between V1 and V2.
Secondary objective 2 was to further evaluate the tolerability of 5 mg as a starting dose of vericiguat. Endpoint: Continuous intake of study intervention between V1 and V2 or restart of study intervention after any temporary interruption.
Dose changes in GDMT medications (RAS blockade, Beta-blocker, MRA, or SGLT2i) or oral diuretics for 2 weeks were discouraged, except when mandated by known side-effects for individual drug classes (e.g., hyperkalemia for MRA or angioedema for ACE-inhibitors/ARNI). Use of short and long-acting nitrates was permitted.
On Days 1-14, 5.0 mg Verquvo® vericiguat was administered orally once daily. The endpoint was tolerability based on need for treatment interruption between Days 1 and Day 14.

[2] = some patients receiving vericiguat in clinical trials; cited from earlier work
[3] = 106 started treatment, 5 mg once daily for 2 weeks

With `COC(=O)Nc1c(N)nc(-c2nn(Cc3ccccc3F)c3ncc(F)cc23)nc1N` [Vericiguat, methyl {4,6-diamino-2-[5-fluoro-1-(2-fluorobenzyl)-1H-pyrazolo[3,4-b]pyridin-3-yl]pyrimidin-5-yl}carbamate] the “Difference between participants with and without recent worsening heart failure events in meeting primary and secondary endpoints” value ([1]; 5 mg dose, 2 weeks) was “no major differences”, the “Primary endpoint: participants who completed the 2-week treatment period without moderate to severe symptomatic hypotension and without temporary treatment interruptions exceeding 1 day” value ([1]; 5 mg dose, 2 weeks) was 93.4% and the “Secondary endpoint 1: participants who completed the 2-week treatment period without reported intervention-related adverse events” value ([1]; 5 mg dose, 2 weeks) was 90.6%. The “Secondary endpoint 2: participants who completed treatment with continuous intervention intake or restarted study intervention after a temporary interruption” value ([1]; 5 mg dose, 2 weeks) was 96.2%, the “patients who continued through the 14-day titration without a medical need for interruption” value ([1]; 5.0 mg orally once daily, Days 1-14) was “at least 90%” and the “TREATMENT phase: Completed” value [1, 3] was 102 (96.2%) Number of participants (%). For the same molecule, the “TREATMENT phase: Did not complete” value [1, 3] was 4 (3.8%) Number of participants (%), the “Tolerability of initiating treatment at 5 mg (in words)” value ([1]; HFrEF population with and without recent worsening heart failure events, on current GDMT) was “well tolerated” and the “discontinuations for AE” value ([1]; OVERALL N = 106, SAF, 5 mg once daily, two weeks) was 4 discontinuations. For the same molecule, the “Any AE” value ([1]; SAF N = 106, 5 mg) was 14 (13.2%) Number (%) of participants, the “Any AE leading to discontinuation of intervention” value ([1]; SAF N = 106, 5 mg) was 4 (3.8%) Number (%) of participants and the “Any AE leading to dose modification of study intervention (delays, interruptions and reductions)” value ([1]; SAF N = 106, 5 mg) was 6 (5.7%) Number (%) of participants. For the same molecule, the “Any AE of special interest” value ([1]; SAF N = 106, 5 mg) was 6 (5.7%) Number (%) of participants, the “Any AE related to procedures required by the protocol” value ([1]; SAF N = 106, 5 mg) was 0 Number (%) of participants and the “Any SAE” value ([1]; SAF N = 106, 5 mg) was 1 (0.9%) Number (%) of participants. The “Any SAE leading to discontinuation of intervention” value ([1]; SAF N = 106, 5 mg) was 0 Number (%) of participants, the “Any SAE related to procedures required by the protocol” value ([1]; SAF N = 106, 5 mg) was 0 Number (%) of participants and the “Any intervention-related AE” value ([1]; SAF N = 106, 5 mg) was 10 (9.4%) Number (%) of participants. The “Any intervention-related SAE” value ([1]; SAF N = 106, 5 mg) was 0 Number (%) of participants, the “Life-threatening SAE” value ([1]; SAF N = 106, 5 mg) was 0 Number (%) of participants and the “Maximum intensity for any AE: MILD” value ([1]; SAF N = 106, 5 mg) was 9 (8.5%) Number (%) of participants. For the same molecule, the “Maximum intensity for any AE: MODERATE” value ([1]; SAF N = 106, 5 mg) was 4 (3.8%) Number (%) of participants, the “Maximum intensity for any AE: SEVERE” value ([1]; SAF N = 106, 5 mg) was 1 (0.9%) Number (%) of participants and the “Maximum intensity for intervention-related AEs: MILD” value ([1]; SAF N = 106, 5 mg) was 8 (7.5%) Number (%) of participants. For the same molecule, the “Maximum intensity for intervention-related AEs: MODERATE” value ([1]; SAF N = 106, 5 mg) was 2 (1.9%) Number (%) of participants, the “Participants with total duration of interruption/delay of 0 days” value ([1]; SAF N = 106, 5 mg) was 102 (96.2%) n (%) and the “Participants with total duration of interruption/delay of 1 day” value ([1]; SAF N = 106, 5 mg) was 1 (0.9%) n (%). The “Participants with total duration of interruption/delay of 2 days” value ([1]; SAF N = 106, 5 mg) was 3 (2.8%) n (%), the SAE requiring hospitalization ([1]; SAF N = 106, 5 mg) was 1 (0.9%) Number (%) of participants and the “SAE resulting in substantial disruption of normal life functions” value ([1]; SAF N = 106, 5 mg) was 0 Number (%) of participants. The “SAE with fatal outcome” value ([1]; SAF N = 106, 5 mg) was 0 Number (%) of participants, the “SAE: Congenital anomaly or birth defect” value ([1]; SAF N = 106, 5 mg) was 0 Number (%) of participants and the “SAE: Other” value ([1]; SAF N = 106, 5 mg) was 0 Number (%) of participants. The “Total Duration of Interruption/Delay, Max” value ([1]; SAF N = 106, 5 mg) was 2 days, the “Total Duration of Interruption/Delay, Mean (SD)” value ([1]; SAF N = 106, 5 mg) was 0.1 (0.3) ^ days and the “Total Duration of Interruption/Delay, Median” value ([1]; SAF N = 106, 5 mg) was 0.0 days. The “Total Duration of Interruption/Delay, Min” value ([1]; SAF N = 106, 5 mg) was 0 days, the “TREATMENT phase: Did not complete, primary reason ADVERSE EVENT” value ([1]; percentage of the participants who did not complete) was 4 (100.0%) Number of participants (%) and the “Effect on systolic blood pressure compared with placebo” value [2] was “reduction of systolic blood pressure”.
